Laboratory results as given in patent US20260069529A1 (BLIS TECHNOLOGIES LIMITED, priority 2022, published 2026).

Columns and labels:
Micrococcus luteus Q24 [1] = experiment: Inhibition by potential prebiotics, spot on lawned CABK12 agar (prebiotic MIC); format: cell-based; conditions: 24 hours 37° C. 5% CO2; for Suitable to be used in Q24 containing product?: aqueous substances 100% to 0.3%, oils 100% only
Method: CABK12 agar plates were split into segments of 6 and […] suspension of Micrococcus luteus […] raw ingredient. Each of the aqueous potential prebiotic substances to be screened were serially diluted in a range of concentrations from 100% to 0.3% using sterile distilled water. Oil based substances were tested at 100% only. 20 μL of each concentration, of each substance were pipetted into a spot onto one segment of the […]12 agar plate and was incubated for 24 hours at 37° C. 5% CO2 in air.

IL-6 = experiment: EpiDerm safety and efficacy experiment, cytokine quantification IL-6; format: cell-based, human
Method: (§1) The remaining 6 tissues, which were destined for histology or else to receive 5% SDS, were grouped together on the sixth cell culture plate. […] Vitamin C (50 μg/mL) was instead delivered in the culture medium. On day 4 conditioned media samples were collected and stored frozen at −80° C. for cytokine measurement. 33 of the tissues were then exposed for 30 μL of 0.5% or 5% SDS in PBS, or to PBS as negative control. […] The remaining 3 tissues (destined for histology) were simply fed fresh medium and given the appropriate main treatment. […] All tissues were gently rinsed with PBS and the 3 histology tissues were fixed in neutral buffered formalin. The viabilities of the other 33 tissues were assessed using the MTT viability assay.
(§2) For quantification of IL-1β, IFN-α2, IFN-γ, TNF-α, MCP-1 (CCL2), IL-6, IL-8 (CXCL8), IL-10, IL-12p70, IL-17A, IL-18, IL-23, and IL-33, bead-based multiplex LEGENDplex™ analysis (LEGENDplex™ Human Inflammation Panel 1 (13-plex); BioLegend, San Diego, CA, USA) was used according to the manufacturer's instructions. The relevance of each of the measured cytokines for which activity was observed is described in Table 6. Reactions were performed in duplicate. Analysis was performed with the Cytek™ Aurora flow cytometer (Cytek Biosciences Inc., Fremont, CA, USA). Data were analysed via Legendplex V8.0 software (BioLegend) and specified as pg/mL.

IL-8 (CXCL8) = experiment: EpiDerm safety and efficacy experiment, cytokine quantification IL-8; format: cell-based, human; conditions: daily treatment 4 days; Q24 1×10^8 CFU/ml, vitamin C 50 μg/mL
Method: as §1, §2

IL-18 = experiment: EpiDerm safety and efficacy experiment, cytokine quantification IL-18; format: cell-based, human; conditions: daily treatment 4 days; Q24 1×10^8 CFU/ml, vitamin C 50 μg/mL
Method: as §1, §2

Micrococcus luteus Q24 [2] = experiment: Effect of prebiotics on the growth of Micrococcus luteus Q24 in M17 broth; format: cell-based; conditions: at 24 hours
Method: A batch of M17 broth (Difco #218561) was made, excluding the lactose solution, by following the manufacturer's instructions. 50 ml of broth was dispensed into sterile 100 ml Schott bottles and 2.5 g (5% w/v) of each potential prebiotic substance was added and mixed well using a magnetic stirrer and stir plate. The mixtures were autoclaved at 110° C. for 10 minutes and allowed to cool.
The suspensions of the prebiotic candidates were prewarmed to 40° C. in order to allow for increased homogenisation of any oil-based components prior to dispensing into the wells. 2 ml of each suspension and an M17 only (control) were pipetted into a sterile 24 well tissue culture plate. […] 100 μl of the suspension was pipetted into each well. Once the suspension was added each well was mixed by aspirating and dispensing the solution 5 times with a 1 ml pipette.
Each sample was enumerated at time points 0, 3, 6, 15, 26 and 34 hours using the following method. […] The number of colonies in each spot were then counted using an electronic colony counter and average to give the final result.
The same method was used as described above except the time points tested were 0, 6, 18 and 24 hours. Olive squalene was selected as one of the preferred prebiotics with 3 others that were analysed in combination with olive squalene and compared to the results of the prebiotic candidates alone (FIG. 17).

Compound	Suitable to be used in Q24 containing product? (Micrococcus luteus Q24 [1])	other results
NC(=O)c1cccnc1 [Niacinamide]	Yes	–
O=C(O)c1ccccc1O [Salicylic acid (SA), Salicylic acid]	No	Inhibitory concentration against Micrococcus luteus Q24 (Micrococcus luteus Q24 [1]): > 5%
CC1=C(/C=C/C(C)=C/C=C/C(C)=C/CO)C(C)(C)CCC1 [Retinol (Vitamin A), Retinol]	Yes	–
O=C1O[C@H]([C@@H](O)CO)C(O)=C1O [vitamin C, Ascorbic acid]	Yes	IL-6 levels day 4 vs day 0 (IL-6; daily treatment 4 days, Q24 1×10^8 CFU/ml, vitamin C 50 μg/mL): slight but significant increase on day 4; IL-6 released in response to 0.5% SDS (IL-6; pre-treatment 4 days, day 5 vs day 4): slight increase on day 5; IL-8 levels day 4 vs day 0 (IL-8 (CXCL8)): unchanged; IL-18 levels day 4 vs day 0 (IL-18): trend for lower values on day 4
CC(C)=CCC/C(C)=C/CC/C(C)=C/CC/C=C(\C)CC/C=C(\C)CCC=C(C)C [Olive Squalene]	Yes	–
Hyaluronic acid	Yes	–
OC[C@@H](O)[C@H](O)[C@@H](O)CO [Xylitol]	Yes	Effect on live Micrococcus luteus Q24 cell count (Micrococcus luteus Q24 [2]): detrimental
CC(O)C(=O)O (centres unmarked) [Lactic acid (LA), Lactic acid]	No	Inhibitory concentration against Micrococcus luteus Q24 (Micrococcus luteus Q24 [1]): > 2.5%
Cc1c(C)c2c(c(C)c1O)CC[C@@](C)(CCC[C@H](C)CCC[C@H](C)CCCC(C)C)O2 [Vitamin E, D Alpha Tocopherol 1000 IU, D Alpha Tocopherol]	Yes	–
NC(=O)NC1NC(=O)NC1=O (centres unmarked) [Allantoin]	Yes	–
